Data on 37 molecules can be found in US20060045953A1 (priority 2004, published 2006).

SMILES strings stand for the structures. Like-named read-outs stand apart in the source and are kept apart here.

The experiment deals with T1, hT1R2/hT1R3 sweet receptor (Homo sapiens, UniProt Q7RTX0+Q8TE23).
T1 construct: expressed in transfected cells; host or cells: HEK293 derivative stably expressing Gα15, clone S-9
T1 sequence (Q8TE23 20-839): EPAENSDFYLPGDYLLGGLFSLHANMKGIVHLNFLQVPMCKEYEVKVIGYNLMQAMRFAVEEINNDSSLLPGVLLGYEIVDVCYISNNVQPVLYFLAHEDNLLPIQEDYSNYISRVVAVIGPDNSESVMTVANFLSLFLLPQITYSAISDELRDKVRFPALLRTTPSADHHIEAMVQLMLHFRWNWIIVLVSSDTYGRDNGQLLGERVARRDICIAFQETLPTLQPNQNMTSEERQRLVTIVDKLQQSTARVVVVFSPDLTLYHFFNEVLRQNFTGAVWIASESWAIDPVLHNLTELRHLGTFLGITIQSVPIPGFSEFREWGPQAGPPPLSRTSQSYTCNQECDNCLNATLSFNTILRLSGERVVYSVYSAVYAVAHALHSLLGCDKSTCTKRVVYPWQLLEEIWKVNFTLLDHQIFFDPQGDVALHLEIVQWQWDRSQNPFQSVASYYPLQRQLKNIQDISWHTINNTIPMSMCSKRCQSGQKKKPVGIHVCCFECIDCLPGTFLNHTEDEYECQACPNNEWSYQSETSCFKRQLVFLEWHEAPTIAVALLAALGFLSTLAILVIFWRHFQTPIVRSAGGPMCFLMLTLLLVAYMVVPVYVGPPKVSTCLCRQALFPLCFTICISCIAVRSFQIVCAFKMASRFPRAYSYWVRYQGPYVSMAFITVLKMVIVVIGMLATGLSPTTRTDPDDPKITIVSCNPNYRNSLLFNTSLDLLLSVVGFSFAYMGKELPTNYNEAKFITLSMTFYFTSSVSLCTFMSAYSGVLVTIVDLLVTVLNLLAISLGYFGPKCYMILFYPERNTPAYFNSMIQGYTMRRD
T1 sequence (Q7RTX0 21-852): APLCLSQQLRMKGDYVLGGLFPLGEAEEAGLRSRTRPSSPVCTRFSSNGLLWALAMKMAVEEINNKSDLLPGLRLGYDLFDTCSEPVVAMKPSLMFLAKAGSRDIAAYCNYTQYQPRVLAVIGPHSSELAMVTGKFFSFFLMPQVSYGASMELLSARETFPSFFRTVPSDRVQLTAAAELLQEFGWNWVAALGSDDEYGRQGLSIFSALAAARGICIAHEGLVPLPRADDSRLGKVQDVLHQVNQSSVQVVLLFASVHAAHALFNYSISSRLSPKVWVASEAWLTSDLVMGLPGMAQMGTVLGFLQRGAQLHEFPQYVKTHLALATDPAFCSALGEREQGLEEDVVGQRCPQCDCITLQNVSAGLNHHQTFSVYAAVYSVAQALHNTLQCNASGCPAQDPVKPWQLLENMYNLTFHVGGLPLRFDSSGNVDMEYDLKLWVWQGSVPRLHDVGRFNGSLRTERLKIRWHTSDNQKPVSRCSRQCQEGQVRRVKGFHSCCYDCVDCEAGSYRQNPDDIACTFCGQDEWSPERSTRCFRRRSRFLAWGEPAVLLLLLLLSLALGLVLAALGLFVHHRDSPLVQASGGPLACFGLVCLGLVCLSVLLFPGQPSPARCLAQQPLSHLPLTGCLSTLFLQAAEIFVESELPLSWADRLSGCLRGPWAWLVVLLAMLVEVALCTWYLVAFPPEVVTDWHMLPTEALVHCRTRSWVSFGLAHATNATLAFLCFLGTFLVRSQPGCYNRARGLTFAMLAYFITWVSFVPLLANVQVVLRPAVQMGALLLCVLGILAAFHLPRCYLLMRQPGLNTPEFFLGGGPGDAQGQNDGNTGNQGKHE
The experiment in a line: In vitro hT1R2/hT1R3 sweet taste receptor activation assay (FLIPR, dose response). Type of experiment: cell-based. In short, it runs like this: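 Dose-response at 10 concentrations (60 nM–30 µM, duplicates) measured as Fluo-3AM calcium fluorescence on FLIPR in hT1R2/hT1R3 S-9 cells, in D-PBS at room temperature. Responses scaled to 400 mM D-fructose. EC50s from regression with all curve parameters floating.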

The mark [1] stands for this setting: Table E, Sweet Enhancer Amides, read-out: Sweet EC50.
[2] abbreviates: read-out: EC50 for activation of a hT1R2/hT1R3 sweet receptor expressed in an HEK293 cell line.

Take `CC12CCC(C1)C(C)(C)C2NC(=O)c1cccs1` (stereo not shown) [Example E73, Thiophene-2-carboxylic acid (1,3,3-trimethyl-bicyclo[2.2.1]hept-2-yl)-amide]: the EC50 under setting [1] is 3360 nM.
On to `CC1CCCCC1NC(=O)c1ccnc(Cl)c1` (stereo not shown) [Example E56, 2-chloro-N-(2-methylcyclohexyl)isonicotinamide], for which the EC50 under setting [1] amounted to 1920 nM.
Still for that read-out and setting: the value for `Cc1c(F)c(F)c(C(=O)NC2CCCC(C)C2C)c(F)c1F` (stereo not shown) [Example E43, N-(2,3-dimethylcyclohexyl)-2,3,5,6-tetrafluoro-4-methylbenzamide] was 1080 nM.
Regarding `Cc1cccc(C)c1C(=O)NC1CCCCC1C` (stereo not shown) [Example 168, 2,6-dimethyl-N-(2-methylcyclohexyl)benzamide], the EC50 under setting [2] was determined as 1880 nM.
In the case of `CCOc1ccc(CCNC(=O)c2ccnn2C)cc1` [Example E83, N-(4-ethoxyphenethyl)-1-methyl-i H-pyrazole-5-carboxamide], the EC50 under setting [1] was 4680 nM.
Same read-out and setting: to `COc1cccc2c1CCCC2NC(=O)c1cccc(C(C)C)c1O` (stereo not shown) [Example E124] belongs 2640 nM; to `COc1ccc(Cl)c(OC)c1C(=O)N[C@H]1CCCc2ccccc21` [Example E20, (S)-3-chloro-2,6-dimethoxy-N-(1,2,3,4-tetrahydronaphthalen-1-yl)benzamide], 4130 nM.
With `O=C(Nc1c(F)cc(Br)cc1F)N1Cc2cccc([N+](=O)[O-])c2C1` [Example 196, N-(4-Bromo-2,6-difluorophenyl)-4-nitroisoindoline-2-carboxamide], the EC50 under setting [2] came out at 1070 nM.
Turning to `Cc1c(F)c(F)c(C(=O)NC(C)CCC(C)C)c(F)c1F` (stereo not shown) [Example E70, 2,3,5,6-tetrafluoro-4-methyl-N-(5-methylhexan-2-yl)benzamide], the EC50 under setting [1] stood at 3200 nM.
The same measure, in the same setting: the value for `CC1CCc2ccccc2C1NC(=O)c1ccccc1O` (stereo not shown) [Example E9, 2-hydroxy-N-(2-methyl-1,2,3,4-tetrahydronaphthalen-1-yl)benzamide] was 2360 nM.
For `Cc1cccc2c1CN(C(=O)Nc1c(F)cc(Br)cc1F)C2` [Example 193, N-(4-bromo-2,6-difluorophenyl)-4-methylisoindoline-2-carboxamide], the EC50 under setting [2] was 20 nM.
On to `Cc1c(NC(=O)N2Cc3ccccc3C2)cccc1[N+](=O)[O-]` [Example E102, N-(2-methyl-3-nitrophenyl)isoindoline-2-carboxamide], for which the EC50 under setting [1] turned out to be 2010 nM.
For the molecule `COc1cccc(C(=O)NC2CCCc3c(OC)cccc32)c1O` (stereo not shown) [Example E121, 2-hydroxy-3-methoxy-N-(5-methoxy-1,2,3,4-tetrahydronaphthalen-1-yl)benzamide], the EC50 under setting [1] turned out to be 1610 nM.
The same measure, in the same setting: the value for `Cc1c(F)c(F)c(C(=O)NC(C)C(C)(C)C)c(F)c1F` (stereo not shown) [Example E28, N-(3,3-dimethylbutan-2-yl)-2,3,5,6-tetrafluoro-4-methylbenzamide] was 210 nM.
The same measure, in the same setting: the value for `COc1cc(Cl)c(NC(=O)c2cccc(C(F)(F)F)c2)c(OC)c1` [Example E85, N-(2-Chloro-4,6-dimethoxy-phenyl)-3-trifluoromethyl-benzamide] was 1420 nM.
Same read-out and setting: to `CC1CCCCC1NC(=O)c1c(Cl)cccc1Cl` (stereo not shown) [Example E39, 2,6-dichloro-N-(2-methylcyclohexyl)benzamide] belongs 910 nM; to `Cc1cccc(C(=O)NC2CCCCC2C)c1C` (stereo not shown) [Example E63, 2,3-dimethyl-N-(2-methylcyclohexyl)benzamide], 2600 nM.
As to `CCCc1nocc1C(=O)N[C@@H]1CCCc2c(C)cc(C)cc21` [Example E125, (R)-N-(5,7-dimethyl-1,2,3,4-tetrahydronaphthalen-1-yl)-3-propylisoxazole-4-carboxamide], under setting [1], the EC50 amounted to 620 nM.
Still for that read-out and setting: the value for `Cc1cc(C)c(C(=O)NC2CCCCC2C)c(C)c1` (stereo not shown) [Example E36, 2,4,6-trunethyl-N-(2-methylcyclohexyl)benzamide] was 720 nM; that for `Cc1ccc(NC(=O)c2ccc(Cl)c(C)c2)c(C)c1` [Example E92, 4-chloro-N-(2,4-dimethylphenyl)-3-methylbenzamide] was 2740 nM; that for `O=C(Nc1ccc(Cl)cc1)N1Cc2ccccc2C1` [Example E105, N-(4-chlorophenyl)isoindoline-2-carboxamide] was 3400 nM.
Regarding `O=C(Nc1ccc(F)cc1F)N1Cc2ccccc2C1` [Example E101, N-(2,4-difluorophenyl)isoindoline-2-carboxamide], under setting [1], the EC50 is 1370 nM.
Still for that read-out and setting: the value for `Cc1ccc2ccccc2c1C(=O)NC1CCCCC1C` (stereo not shown) [Example E52, 2-methyl-N-(2-methylcyclohexyl)-1-naphthamide] was 1520 nM.
In the case of `COc1ccc2c(c1)[C@H](NC(=O)c1cccc(Cl)c1O)CCC2` [Example 184, (R)-3-Chloro-2-hydroxy-N-(7-methoxy-1,2,3,4-tetrahydronaphthalen-1-yl)benzamide], the EC50 under setting [2] turned out to be 260 nM.
On the same count and under the same terms, to `O=C(N[C@@H]1CCCc2ccccc21)c1ccoc1` [Example 170, (R)-N-(1,2,3,4-tetrahydronaphthalen-1-yl)furan-3-carboxamide] belongs 6600 nM.
As for `CC1CCCCC1NC(=O)c1cccc(C(F)(F)F)c1F` (stereo not shown) [Example E61, 2-fluoro-N-(2-methylcyclohexyl)-3-(trifluoromethyl)benzamide], the EC50 under setting [1] turned out to be 2400 nM.
Same read-out and setting: the value for `Cc1c(F)cccc1C(=O)N[C@H]1CCCc2ccccc21` [Example E19, (S)-3-fluoro-2-methyl-N-(1,2,3,4-tetrahydronaphthalen-1-yl)benzamide] was 3570 nM; that for `O=C(NC1CCCc2ccccc21)c1cccc(Cl)c1O` (stereo not shown) [Example E7, 3-chloro-2-hydroxy-N-(1,2,3,4-tetrahydronaphthalen-1-yl)benzamide] was 1810 nM; that for `Cc1c(F)c(F)c(C(=O)NCC(C)C)c(F)c1F` [Example E69, 2,3,5,6-tetrafluoro-N-isobutyl-4-methylbenzamide] was 3190 nM.
Still for that read-out and setting: to `O=C(Nc1nnc(C(F)(F)F)s1)c1ccc(F)c(Cl)c1` [Example E87, 3-Chloro-4-fluoro-N-(5-trifluoromethyl-[1,3,4]thiadiazol-2-yl)-benzamide] belongs 1550 nM; to `CC1CCCCC1NC(=O)c1cncc(Br)c1` (stereo not shown) [Example E62, 5-bromo-N-(2-methylcyclohexyl)nicotinamide], 2420 nM.
In the case of `O=C(Nc1cccc2c1CCCC2)N1CCc2ccccc21` [Example E119, N-(5,6,7,8-tetrahydronaphthalen-1-yl)indoline 1-carboxamide], under setting [1], the EC50 was found to be 1060 nM.
As for `COc1cc(F)c(NC(=O)N2Cc3cccc(C)c3C2)c(F)c1` [Example 195, N-(2,6-difluoro-4-methoxyphenyl)-4-methylisoindoline-2-carboxamide], the EC50 under setting [2] was determined as 67 nM.
Consider `O=C(N[C@@H]1CCCc2ccccc21)c1cccc(F)c1` [Example E23, (R)-3-fluoro-N-(1,2,3,4-tetrahydronaphthalen-1-yl)benzamide], for which the EC50 under setting [1] was determined as 4860 nM.
Still for that read-out and setting: the value for `CC1CCc2ccccc2C1NC(=O)c1cccc(O)c1O` (stereo not shown) [Example E8, 2,3-dihydroxy-N-(2-methyl-1,2,3,4-tetrahydronaphthalen-1-yl)benzamide] was 1980 nM; that for `CC1CCCCC1NC(=O)c1ccc2nonc2c1` (stereo not shown) [Example E71] was 3330 nM.
Take `COc1cccc2c1CCC(C)C2NC(=O)c1cccc(Cl)c1O` (stereo not shown) [Example 186, 3-Chloro-2-hydroxy-N-(5-methoxy-2-methyl-1,2,3,4-tetrahydronaphthalen-1-yl)benzamide]: the EC50 under setting [2] came out at 500 nM.
